One assay concerns SW620 colon cancer cells. The format is cell-based. The conditions noted are these: Homo sapiens, SW-620, 120 h, read-out: Cell Line GI50 Range SW-620.
Another assay has as its system A549 lung cancer cells. It is filed as cell-based. The conditions noted are these: Homo sapiens, A549, 120 h, read-out: Cell Line GI50 Range A-549.
The target of the next assay is Aurora B (Homo sapiens, UniProt Q96GD4). Put plainly: Aurora B inhibition assay (Z-Lyte). The conditions noted are these: read-out: IC50 Ranges Aurora B. The format is biochemical.
Sequence of Aurora B (Q96GD4 whole entry): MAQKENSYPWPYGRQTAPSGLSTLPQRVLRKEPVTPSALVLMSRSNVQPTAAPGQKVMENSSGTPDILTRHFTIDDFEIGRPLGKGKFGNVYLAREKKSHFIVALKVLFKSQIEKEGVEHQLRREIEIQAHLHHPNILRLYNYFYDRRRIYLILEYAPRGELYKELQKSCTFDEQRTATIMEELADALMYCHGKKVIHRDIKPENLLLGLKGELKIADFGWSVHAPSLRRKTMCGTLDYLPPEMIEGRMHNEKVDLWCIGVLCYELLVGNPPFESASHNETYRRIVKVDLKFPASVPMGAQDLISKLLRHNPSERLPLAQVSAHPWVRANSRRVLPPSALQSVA
In another assay the target is T1, human PLK4 (Homo sapiens, UniProt O00444).
T1 construct: amino terminal GST fusion of residues 1-391 of human PLK4; made in house; host or cells: E. coli
T1 sequence (O00444 1-391): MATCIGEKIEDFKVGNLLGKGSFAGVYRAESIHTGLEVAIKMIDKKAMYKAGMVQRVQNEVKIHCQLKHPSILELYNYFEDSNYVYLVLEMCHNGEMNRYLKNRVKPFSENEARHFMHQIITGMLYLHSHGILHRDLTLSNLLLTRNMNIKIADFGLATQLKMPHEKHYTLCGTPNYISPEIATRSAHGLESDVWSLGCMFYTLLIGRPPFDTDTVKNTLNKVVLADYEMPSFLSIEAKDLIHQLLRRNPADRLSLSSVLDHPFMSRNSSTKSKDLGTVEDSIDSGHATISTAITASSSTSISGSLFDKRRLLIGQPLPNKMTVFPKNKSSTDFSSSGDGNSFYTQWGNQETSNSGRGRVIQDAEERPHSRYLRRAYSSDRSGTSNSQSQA
Put plainly: PLK4 inhibition assay (indirect ELISA). The conditions noted are these: read-out: IC50 Ranges PLK4. It is filed as biochemical.

This is an account of results in US8263596B2, “Kinase inhibitors and method of treating cancer” (University Health Network, priority 2010, dated 2012).

Structures can show the parent of a compound that is named as a salt.

Protocol for Aurora B: Aurora B inhibition was determined using the Z-Lyte assay kit from Invitrogen. […] The % inhibition values were determined according to the manufacturer's directions and IC50 values were obtained using a non-linear 4 point logistic curve fit (XLfit4, IDBS)
Protocol for human PLK4: PLK4 activity was measured using an indirect ELISA detection system. […] The colourimetric reaction was allowed to continue for 5 minutes, followed by addition of stop solution (0.5 N sulphuric acid), and quantified by detection at 450 nm with either a monochromatic or filter based plate reader (Molecular Devices M5 or Beckman DTX880, respectively).
Compounds were pre-incubated in the presence of enzyme for 15 minutes prior to addition of ATP and the activity remaining quantified using the above described activity assay. […] The IC50 value was determined using a non-linear 4 point logistic curve fit (XLfit4, IDBS) with the formula; (A+(B/(1+((x/C)^D)))), where A=background value, B=range, C=inflection point, D=curve fit parameter.

With `O=C1Nc2ccccc2[C@]12CC2c1ccc2cn[nH]c2c1` (mixture of isomers) [Example A2, (1R*,2S*)-2-(1H-indazol-6-yl)spiro[cyclopropane-1,3′-indolin]-2′-one], the GI50 in the assay on SW620 colon cancer cells and in the assay on A549 lung cancer cells was more than 10 µM each time.

`COc1ccc2c(c1)[C@]1(CC1c1ccc3c(-c4ccc(N5CCN(C)CC5)nc4)n[nH]c3c1)C(=O)N2` (mixture of isomers) [Example A14, (1R*,2S*)-5′-Methoxy-2-(3-(6-(4-methylpiperazin-1-yl)pyridin-3-yl)-1H-indazol-6-yl)spiro[cyclopropane-1,3′-indolin]-2′-one dihydrochloride]: the GI50 with SW620 colon cancer cells and in the assay on A549 lung cancer cells was less than 0.1 µM throughout.

Consider `COc1ccc2c(c1)[C@]1(C[C@H]1c1ccc3c(-c4ccc(N5CCN(C)CC5)cc4)n[nH]c3c1)C(=O)N2` (relative stereo) [Example A38, (1R*,2S*)-5′-Methoxy-2-(3-(4-(4-methylpiperazin-1-yl)phenyl)-1H-indazol-6-yl)spiro[cyclopropane-1,3′-indolin]-2′-one], for which the GI50 in the assay with SW620 colon cancer cells lay in the range of 0.1 to 1 µM. At Aurora B, the IC50 is less than 0.1 µM.

As to `COc1ccc2c(c1)[C@]1(C[C@H]1c1ccc3c(-c4ccc(N5CCC(O)CC5)nc4)n[nH]c3c1)C(=O)N2` (relative stereo) [Example A117, (1R*,2S*)-2-(3-(6-(4-hydroxypiperidin-1-yl)pyridin-3-yl)-1H-indazol-6-yl)-5′-methoxyspiro[cyclopropane-1,3′-indolin]-2′-one 2,2,2-trifluoroacetate], the GI50 was more than 10 µM with SW620 colon cancer cells and 1 to 10 µM in the assay with A549 lung cancer cells. Further, the IC50 on Aurora B is 0.1 to 1 µM.

`COc1ccc2c(c1)[C@]1(C[C@H]1c1ccc3c(-c4ccc(C5CCNCC5)cc4)n[nH]c3c1)C(=O)N2` (relative stereo) [Example A122, (1R*,2S*)-5′-methoxy-2-(3-(4-(piperidin-4-yl)phenyl)-1H-indazol-6-yl)spiro[cyclopropane-1,3′-indolin]-2′-one 2,2,2-trifluoroacetate]: the GI50 in the assay with SW620 colon cancer cells and with A549 lung cancer cells was less than 0.1 µM in each case.

`COc1ccc2c(c1)[C@]1(C[C@H]1c1ccc3c(-c4ccc(C(=O)N5CCN(C)CC5)cc4)n[nH]c3c1)C(=O)N2` (relative stereo) [Example A148, (1R*,2S*)-5′-methoxy-2-(3-(4-(4-methylpiperazine-1-carbonyl)phenyl)-1H-indazol-6-yl)spiro[cyclopropane-1,3′-indolin]-2′-one 2,2,2-trifluoroacetate]: the GI50 in the assay with SW620 colon cancer cells lay in the range of 1 to 10 µM; in the assay on A549 lung cancer cells, 0.1 to 1 µM. Besides, the IC50 on human PLK4 was less than 0.1 µM; on Aurora B it was 0.1 to 1 µM.

Take `NC(=O)CN1C(=O)[C@@]2(C[C@H]2c2ccc3c(/C=C/c4ccc(CN5CCCCC5)cc4)n[nH]c3c2)c2ccccc21` (relative stereo) [Example A165, 2-((1R*,2S*)-(E)-2′-oxo-2-(3-(4-(piperidin-1-ylmethyl)styryl)-1H-indazol-6-yl)spiro[cyclopropane-1,3′-indoline]-1′-yl)acetamide 2,2,2-trifluoroacetate]: the IC50 on human PLK4 and at Aurora B was less than 0.1 µM each time.

Turning to `COc1cc2c(cc1OC)[C@]1(C[C@H]1c1ccc3c(/C=C/c4ccc(CN(C)C)cc4)n[nH]c3c1)C(=O)N2` (relative stereo) [Example A168, (1R*,2S*)-(E)-2-(3-(4-((dimethylamino)methyl)styryl)-1H-indazol-6-yl)-5′,6′-dimethoxyspiro[cyclopropane-1,3′-indolin]-2′-one 2,2,2-trifluoroacetate], the IC50 at human PLK4 and at Aurora B was less than 0.1 µM throughout.

For `Cc1ccc2c(c1)[C@]1(C[C@H]1c1ccc3c(/C=C/c4ccc(CN(C)C)cc4)n[nH]c3c1)C(=O)N2` (relative stereo) [Example A169, (1R*,2S*)-(E)-2-(3-(4-((dimethylamino)methyl)styryl)-1H-indazol-6-yl)-5′-methylspiro[cyclopropane-1,3′-indolin]-2′-one 2,2,2-trifluoroacetate], the GI50 in the assay with A549 lung cancer cells was less than 0.1 µM.

Regarding `CC(C)CCN1C(=O)[C@@]2(C[C@H]2c2ccc3c(/C=C/c4ccc(CN(C)C)cc4)n[nH]c3c2)c2ccccc21` (relative stereo) [Example A176, (1R*,2S*)-(E)-2-(3-(4-((dimethylamino)methyl)styryl)-1H-indazol-6-yl)-1′-isopentylspiro[cyclopropane-1,3′-indolin]-2′-one], the IC50 was less than 0.1 µM at human PLK4 and 0.1 to 1 µM on Aurora B.

In the case of `COc1ccc2c(c1)[C@]1(C[C@H]1c1ccc3c(/C=C/c4ccc(N5CCNCC5)cc4)n[nH]c3c1)C(=O)N2` (relative stereo) [Example A182, (1R*,2S*)-5′-methoxy-2-(3-(4-(piperazin-1-yl)styryl)-1H-indazol-6-yl)spiro[cyclopropane-1,3′-indolin]-2′-one 2,2,2-trifluoroacetate], the IC50 at human PLK4 and on Aurora B was less than 0.1 µM in each case.

With `COc1ccc2c(c1)[C@]1(C[C@H]1c1ccc3c(/C=C/c4ccc(N5CCN(C(C)C)CC5)cc4)n[nH]c3c1)C(=O)N2` (relative stereo) [Example A189, (1R*,2S*)-(E)-2-(3-(4-(4-isopropylpiperazin-1-yl)styryl)-1H-indazol-6-yl)-5′-methoxyspiro[cyclopropane-1,3′-indolin]-2′-one 2,2,2-trifluoroacetate], the IC50 on human PLK4 and on Aurora B was less than 0.1 µM throughout.

Take `CCN1Cc2ccc(/C=C/c3n[nH]c4cc([C@@H]5C[C@@]56C(=O)Nc5ccc(OC)cc56)ccc34)cc2C1` (relative stereo) [Example A190, (1R*,2S*)-2-(3-((E)-2-(2-ethylisoindolin-5-yl)vinyl)-1H-indazol-6-yl)-5′-methoxyspiro[cyclopropane-1,3′-indolin]-2′-one 2,2,2-trifluoroacetate]: the IC50 at human PLK4 and at Aurora B was less than 0.1 µM in each case.

As to `O=C1Nc2ccc(F)cc2[C@]12C[C@H]2c1ccc2c(/C=C/c3ccc(N4CCOCC4)nc3)n[nH]c2c1` (relative stereo) [Example A207, (1R*,2S*)-5′-fluoro-2-(3-((E)-2-(6-morpholinopyridin-3-yl)vinyl)-1H-indazol-6-yl)spiro[cyclopropane-1,3′-indolin]-2′-one 2,2,2-trifluoroacetate], the IC50 on human PLK4 and at Aurora B was less than 0.1 µM throughout.

Consider `CN1CCN(c2ccc(-c3n[nH]c4cc([C@@H]5C[C@@]56C(=O)Nc5ccc(OC(F)F)cc56)ccc34)cn2)CC1` (relative stereo) [Example A209, (1R*,2S*)-5′-(difluoromethoxy)-2-(3-(6-(4-methylpiperazine-1-yl)pyridine-3-yl)-1H-indazol-6-yl)spiro[cyclopropane-1,3′-indolin]-2′-one 2,2,2-trifluoro acetate], for which the IC50 at human PLK4 and on Aurora B was less than 0.1 µM throughout.

In the case of `COc1ccc2c(c1)[C@]1(C[C@H]1c1ccc3c(/C=C/c4ccc(N5CCOCC5)nc4)n[nH]c3c1)C(=O)N2` (relative stereo) [Example A213, (1R*,2S*)-5′-methoxy-2-(3-((E)-2-(6-morpholinopyridin-3-yl)vinyl)-1H-indazol-6-yl)spiro[cyclopropane-1,3′-indolin]-2′-one 2,2,2-trifluoroacetate], the IC50 at human PLK4 and at Aurora B was less than 0.1 µM in each case.

On to `COc1ccc2c(c1)[C@]1(CC1c1ccc3c(/C=C/c4cc(F)c(CN(C)C)c(F)c4)n[nH]c3c1)C(=O)N2` (stereo in doubt) [Example A215, (1R*,2S*)-(E)-2-(3-(4-((dimethylamino)methyl)-3,5-difluorostyryl)-1H-indazol-6-yl)-5′-methoxyspiro[cyclopropane-1,3′-indolin]-2′-one 2,2,2-trifluoro acetate], for which the IC50 at human PLK4 and on Aurora B was less than 0.1 µM in each case.

`COc1ccc2c(c1)C1(CC1c1ccc3c(I)n[nH]c3c1)C(=O)N2` (stereo not drawn) [Example A6, (1R*,2S*)- and (1R*,2R*)-2-(3-iodo-1H-indazol-6-yl)-5-methoxyspiro-[cyclopropane-1,3′-indolin]-2′-one]: the IC50 is less than 0.1 µM on human PLK4 and 0.1 to 1 µM at Aurora B.

Turning to `CN1C(=O)[C@@]2(C[C@H]2c2ccc3c(/C=C/c4ccc(N5CCNCC5)cc4)n[nH]c3c2)c2ccccc21` [Example A90, (1R,2S)-(E)-1′-methyl-2-(3-(4-(piperazin-1-yl)styryl)-1H-indazol-6-yl)spiro[cyclopropane-1,3′-indolin]-2′-one hydrochloride], the GI50 with SW620 colon cancer cells and in the assay on A549 lung cancer cells was less than 0.1 µM throughout.

For the compound `COc1ccc2c(c1)[C@]1(C[C@H]1c1ccc3c(/C=C/c4ccc(CN5CCOCC5)s4)n[nH]c3c1)C(=O)N2` [Example A105, (1R,2S)-5′-methoxy-2-(3-((E)-2-(5-(morpholinomethyl)thiophen-2-yl)vinyl)-1H-indazol-6-yl)spiro[cyclopropane-1,3′-indolin]-2′-one hydrochloride], the GI50 in the assay with SW620 colon cancer cells and with A549 lung cancer cells was less than 0.1 µM in each case.

In the case of `COc1ccc2c(c1)[C@]1(C[C@H]1c1ccc3c(-c4ccc(N5CCC(N(C)C)CC5)cc4)n[nH]c3c1)C(=O)N2` [Example A120, (1R,2S)-2-(3-(4-(4-(dimethylamino)piperidin-1-yl)phenyl)-1H-indazol-6-yl)-5′-methoxyspiro[cyclopropane-1,3′-indolin]-2′-one 2,2,2-trifluoroacetate], the IC50 at human PLK4 and on Aurora B was less than 0.1 µM in each case.

Broadly, the GI50 is the concentration at which growth is held to half of that of the control. One may read the IC50 as the concentration needed to halve the response being measured.
